Experiment [1] concerns autochthonous mouse pancreatic tumors (KPC model). The experiment can be described thus: In vitro T cell exclusion assay: vibratome sections of KPC pancreatic tumors overlaid with activated T cells. The format is cell-based. Particulars: culture in the presence of the substance, 37° C. for up to 120 min. From the text: This assay tests the mechanism of T cell exclusion from the vicinity of the cancer cells. It also allows screening of drugs and tumors for potential efficacy. This in vitro assay may also be used to screen other drugs (anti-CXCL12, anti-CXCR4, other CXCR4-directed small molecules) that may interfere with the CXCL12/CXCR4 interaction.
300 um vibratome sections of fresh autochthonous mouse pancreatic tumors (the mouse KPC model of Hingorani et al., Cancer Cell 2005) are overlaid with labeled mouse splenic T cells that have been activated in vitro for several days with anti-CD3 and IL-2 (this generates a T cell population that is like the effector T cells that normally infiltrate inflamed tissues/tumors). The tumor tissue+labeled T cells are then cultured at 37° C. for up to 120 min, after which the non-infiltrated T cells are washed off. The vibratome sections are then fixed for staining (p53 which identifies cancer cells) and SHG (to visualize collagen/stromal regions) by confocal microscopy.

For experiment [2], the system named is PDA. In words: PDA tumor volume by ultrasound in KPC / KPCD mice, 6 day treatment. The format is in vivo, mouse. As for the experimental part:
(§1) All experiments were performed in accordance with institutional guidelines and were approved by the UK Home Office and the animal ethics committee of CRUK and the University of Cambridge. Mice were housed at a 12-hour light/12-hour dark cycle and received diet and water ad libitum. The generation of LSL-[…]; LSL10 Tp53R172H/+; Pdx-1-Cre (KPC) and FAP-DTR BAC transgenic mice has been described previously (8, 10). These strains were crossed to generate KPCD (Kras; p53; Cre; DTR) mice. KPC and KPCD mice were screened for tumors from an age of 60 days by abdominal palpation. Tumors were verified by high-resolution ultrasound (Vevo 2100, VisualSonics). Mice with average tumor diameters between 5-8 mm (corresponding to approx. 200 mm3 volume) were enrolled on 6 day treatment studies with 2 follow-up tumor size measurements (day 3 and 6). Where possible, tumors were assessed at multiple angles and the volumes averaged. KPC(−/+DTR Tg) mice were treated every 48 h with 25 ng/g DTx (List Biologicals) in PBS, […] α-PD1 (10F.9G2, Biolegend), 100 μg α-CTLA-4 (9H10, Biolegend) or isotype control antibody by intraperitoneal injection. […] For T-cell depletion studies mice received […] each of α-CD4 (GK1.5, Biolegend) and α-CD8α (53-6.7, Bioloegend) or respective isotype control antibodies for 3 consecutive […] before treatment start and on days 2 and 5 during the course of treatment via intraperitoneal injection.

The subject of the next experiment is LL2/OVA tumors. The note with it: AMD3100 30 mg/ml osmotic pump; C57BL/6 and Rag2−/− mice. As for the experimental part: C57BL/6 were purchased from Charles River UK and Rag2−/− mice were bred at the local establishment. 2×10^5 LL2/OVA cells were injected subcutaneously in RPMI with 1% heat inactivated mouse serum. Tumor sizes were measured using calipers, measuring the long (L) and short (S) dimension, and tumor volumes were calculated using the equation: volume=(L×S2)/2.

Experiment [3] has as its system PDA. The experiment can be described thus: Immunofluorescent confocal microscopy / ARIOL scanning of KPC tumor sections after treatment. The format is in vivo, mouse. On the procedure:
as §1
5 μm frozen tissue sections were fixed in 4% paraformaldehyde (PFA) for 10 minutes at room temperature. Slides were blocked for one hour in 10% donkey serum (Sigma Aldrich)/0.2% Triton x-100. Primary antibodies were incubated overnight at 4° C. Following washing, slides were incubated for one hour at room temperature with appropriate secondary antibody and DAPI counterstain. Slides were subsequently incubated in 0.3M glycine for 10 minutes to reduce autofluorescence and mounted in Hydromount aqueous mounting medium (Fisher Scientific). Images were acquired on a Leica SP5 tandem confocal microscope. For analysis of p53 and Treg staining slides were scanned and analyzed using the automated ARIOL XT system.

Where [4] appears, read: AMD3100 in combination with α-PD-L1, 24 h treatment.

“Also recorded” adds a separate entry of the source.

The record followed here is patent US20180228894A1, “INHIBITION OF CXCR4 SIGNALING IN CANCER IMMUNOTHERAPY” (Cambridge Enterprise Limited, priority 2013, published 2018).

In the case of Z-VAD, in experiment [1], the “Localization of T cells in tumor sections” value is “T cells accumulating also amongst cancer cells”.
Take `c1cc(CN2CCCNCCNCCCNCC2)ccc1CN1CCCNCCNCCCNCC1` [AMD3100, 1,1′-[1,4-phenylenebis(methylene)]bis [1,4,8,11-tetraazacyclotetradecane]]: the “Localization of T cells in tumor sections” value in experiment [1] is “T cells to be found in both stromal and cancer cell regions”. Besides, in the experiment with PDA [2] (AMD3100 by osmotic pump, presence or absence of depleting antibodies to CD4+ and CD8+ T cells), the Tumor growth result is given as “slowed by AMD3100 in a T cell-dependent manner”. The “Decline in PDA volume” value with PDA [2] (higher dose AMD3100 in combination with α-PD-L1, by 48 h, maintained for 6 days) is reported as 15%. Further, the PDA growth entry in the experiment on PDA [2] (higher dose of AMD3100 (osmotic pump)) was “almost completely arrested PDA growth”. Moreover, in the experiment on PDA [2] (murine PDA, combination), the “Interaction of AMD3100 with α-PD-L1” value is given as “remarkable synergistic interaction”. Further, in the experiment on LL2/OVA tumors, the “Control of subcutaneous LL2 tumors (tumor volume)” value is “T cell-dependent control of subcutaneous immunogenic LL2 tumors”. Moreover, the “Composition of residual tumors” value with PDA [3] (AMD3100 alone, ARIOL scanning) was “comprised of premalignant CK19+ epithelial cells and CD45+ inflammatory cells”; in the experiment with PDA [3] (AMD3100 with α-PD-L1, ARIOL scanning), “comprised of premalignant CK19+ epithelial cells and CD45+ inflammatory cells”. For the same compound, the “Proliferating Ki67+ cells” value in the experiment with PDA [3] (AMD3100 and anti-PD-L1, 6 days (FIG. 11, panel E)) is listed as “diminution in proliferating Ki67+ cells”. Moreover, the “Foxp3+ cells in the tumors” value with PDA [3] (AMD3100 high in combination with α-PD-L1, 24 h) was “increase”. In addition, the “Accumulation of T cells amongst cancer cells” value with PDA [3] (setting [4]) was “amplified this effect; also recorded: induce the accumulation of CD3+ T cells in cancer-cell-containing regions of PDA”; with PDA [3] (single agent, 24 h treatment), “increased the accumulation of T cells; also recorded: exclusion is overcome”. The “Frequency of p53+ LOH cancer cells” value with PDA [3] (setting [4]) is “decreased the frequency of p53+ LOH cells; also recorded: loss of cancer cells”. Further, the “Presence of p53+ LOH cancer cells in tumors” value is “rare” in the experiment on PDA [3] (AMD3100 with α-PD-L1, after 6 days of treatment) and “rare” with PDA [3] (single agent, after 6 days of treatment).
